Laboratory results reported in the supplement of paper PMC10307832.

Legend:
Test in all cases: relative viability (nuclei count vs DMSO), 5 days (fraction); higher = more cells survive
Daporinad + Lapatinib = compound: O=C(/C=C/c1cccnc1)NCCCCC1CCN(C(=O)c2ccccc2)CC1 [Daporinad] + CS(=O)(=O)CCNCc1ccc(-c2ccc3ncnc(Nc4ccc(OCc5cccc(F)c5)c(Cl)c4)c3c2)o1 [Lapatinib] (partner 2 µM)
Summary of the method: (§1)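 Relative viability equals treated-well nuclei counts divided by vehicle-well nuclei counts. Counts came from 4× images of lung cancer cell lines grown in 1536-well plates for 5 days after pin-tool dosing on the day after seeding. Dosing used one drug alone or a fixed anchor-drug dose plus five library-drug doses (not always all listed) in √10 steps, and values are medians of duplicate plates.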

R406 + Phenformin = compound: COc1cc(Nc2ncc(F)c(Nc3ccc4c(n3)NC(=O)C(C)(C)O4)n2)cc(OC)c1OC [R406] + N=C(N)NC(=N)NCCc1ccccc1 [Phenformin] (partner 250 µM)
Summary of the method: as §1

R406 + Vorinostat = compound: COc1cc(Nc2ncc(F)c(Nc3ccc4c(n3)NC(=O)C(C)(C)O4)n2)cc(OC)c1OC [R406] + O=C(CCCCCCC(=O)Nc1ccccc1)NO [Vorinostat] (partner 1 µM)
Summary of the method: as §1

Daporinad + Vorinostat = compound: O=C(/C=C/c1cccnc1)NCCCCC1CCN(C(=O)c2ccccc2)CC1 [Daporinad] + O=C(CCCCCCC(=O)Nc1ccccc1)NO [Vorinostat] (partner 1 µM)
Summary of the method: as §1

Cell Line	relative viability (Daporinad + Lapatinib; first compound 0.0005 µM)	relative viability (Daporinad + Lapatinib; first compound 0.001581 µM)	relative viability (Daporinad + Lapatinib; first compound 0.005 µM)	relative viability (Daporinad + Lapatinib; first compound 0.01581 µM)	relative viability (R406 + Phenformin; first compound 0.08 µM)	relative viability (R406 + Phenformin; first compound 0.253 µM)	relative viability (R406 + Phenformin; first compound 0.8 µM)	relative viability (R406 + Phenformin; first compound 2.53 µM)	relative viability (R406 + Phenformin; first compound 8 µM)	relative viability (R406 + Vorinostat; first compound 0.08 µM)	relative viability (R406 + Vorinostat; first compound 0.253 µM)	relative viability (R406 + Vorinostat; first compound 0.8 µM)	relative viability (R406 + Vorinostat; first compound 2.53 µM)	relative viability (R406 + Vorinostat; first compound 8 µM)	relative viability (Daporinad + Vorinostat; first compound 0.0005 µM)	relative viability (Daporinad + Vorinostat; first compound 0.001581 µM)	relative viability (Daporinad + Vorinostat; first compound 0.005 µM)	relative viability (Daporinad + Vorinostat; first compound 0.01581 µM)
NCI-H1975	1.03	1	0.917	0.826	0.386	0.463	0.421	0.224	0.127	0.722	0.775	0.73	0.414	0.213	0.748	0.728	0.813	0.689
CAL-12T	0.599	–	0.722	0.413	0.57	0.667	0.668	0.353	0.14	0.785	0.723	0.758	0.762	0.509	0.659	0.799	0.402	0.217
NCI-H2342	–	–	–	–	0.66	0.623	0.649	0.525	0.535	0.694	0.84	0.699	0.752	0.74	0.806	0.791	0.695	0.815
HCC-44	1.06	1.08	1.07	0.937	0.15	0.22	0.196	0.18	0.127	1.07	1.1	1.1	1.04	1.22	0.928	1.18	1.19	1.03
EKVX	0.169	0.223	0.231	0.251	0.23	0.254	0.245	0.208	0.178	0.78	0.567	0.757	0.6	0.653	0.621	0.825	0.841	0.851
NCI-H1651	0.803	1.09	0.796	0.984	0.455	0.377	0.465	0.252	0.134	0.557	0.612	0.615	0.547	0.545	0.613	0.594	0.695	0.529
NCI-H1648	–	–	–	–	–	–	–	–	–	0.457	0.427	0.562	0.468	0.643	0.439	0.333	0.424	0.41
NCI-H1703	1.39	1.22	0.845	0.402	–	–	–	–	–	–	–	–	–	–	–	–	–	–
Calu-6	1.06	0.959	0.863	0.413	–	–	–	–	–	–	–	–	–	–	–	–	–	–
EBC-1	0.238	0.216	0.206	0.17	–	–	–	–	–	–	–	–	–	–	–	–	–	–
A-427	1.05	1.12	0.962	0.863	0.382	0.335	0.316	0.171	0.134	0.856	0.928	0.852	0.939	0.621	0.838	0.886	0.793	0.659
NCI-H2347	1.14	0.781	1.06	1.05	0.493	0.417	0.43	0.26	0.235	0.586	0.651	0.767	0.383	0.397	0.586	0.754	0.601	0.616
NCI-H1355	0.956	1.09	0.995	0.873	0.474	0.472	0.472	0.197	0.28	0.72	0.71	0.733	0.385	0.439	0.652	0.738	0.615	0.532
NCI-H1944	0.849	0.875	0.802	0.804	0.207	0.227	0.218	0.15	0.16	0.504	0.585	0.566	0.466	0.45	0.57	0.524	0.647	0.613
RERF-LC-KJ	0.682	0.803	0.799	0.888	0.43	0.415	0.41	0.362	0.286	0.669	0.811	0.732	0.583	0.552	0.659	0.795	0.814	0.701
NCI-H2228	1.14	1.75	1.52	1.12	0.318	0.383	0.312	0.106	0.0936	0.693	0.64	0.786	0.281	0.175	0.568	0.606	0.692	0.544
HOP-62	–	1.13	1.04	0.505	0.661	0.783	0.631	0.71	0.658	0.66	0.803	0.836	0.464	0.463	0.341	0.724	0.618	0.414
HARA	0.758	1.05	0.745	0.547	0.386	0.508	0.548	0.377	0.324	0.66	0.606	0.515	0.489	0.515	0.39	0.527	0.518	0.663
PC-14	0.271	0.383	0.31	0.393	0.602	0.951	0.746	0.332	0.12	0.71	0.84	0.975	0.523	0.451	0.519	0.863	0.898	0.472
NCI-H1755	1	1.03	1.06	1.07	0.602	0.651	0.621	0.374	0.429	0.778	0.861	0.757	0.642	0.468	0.76	0.934	0.807	0.751
HCC-78	0.749	0.705	0.854	1.18	0.544	0.751	0.842	0.611	0.392	0.452	0.426	0.412	0.29	0.331	0.368	0.414	0.345	0.5
